Assay results reported in BindingDB's records for doi:10.1038/sj.bjp.0705964 (Johnson & Johnson Pharmaceutical Research and Development, 2004).

Tests used:
Hrh3 protein = Hrh3 protein (Rattus norvegicus, UniProt Q5PPG3)
Histamine H2 receptor = Histamine H2 receptor (Homo sapiens, UniProt P25021)
Histamine H4 receptor = Histamine H4 receptor (Homo sapiens, UniProt Q9H3N8)

Hrh3 protein, sequence (Q5PPG3 whole entry): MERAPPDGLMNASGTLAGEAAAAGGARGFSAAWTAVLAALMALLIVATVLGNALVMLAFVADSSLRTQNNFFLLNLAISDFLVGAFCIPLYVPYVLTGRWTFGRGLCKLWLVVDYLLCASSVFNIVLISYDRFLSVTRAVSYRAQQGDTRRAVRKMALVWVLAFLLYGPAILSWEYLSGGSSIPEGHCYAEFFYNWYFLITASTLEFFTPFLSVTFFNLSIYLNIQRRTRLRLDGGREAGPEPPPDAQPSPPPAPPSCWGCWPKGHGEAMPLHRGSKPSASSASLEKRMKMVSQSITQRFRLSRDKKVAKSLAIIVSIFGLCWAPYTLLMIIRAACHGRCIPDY
Histamine H2 receptor, sequence (P25021 whole entry): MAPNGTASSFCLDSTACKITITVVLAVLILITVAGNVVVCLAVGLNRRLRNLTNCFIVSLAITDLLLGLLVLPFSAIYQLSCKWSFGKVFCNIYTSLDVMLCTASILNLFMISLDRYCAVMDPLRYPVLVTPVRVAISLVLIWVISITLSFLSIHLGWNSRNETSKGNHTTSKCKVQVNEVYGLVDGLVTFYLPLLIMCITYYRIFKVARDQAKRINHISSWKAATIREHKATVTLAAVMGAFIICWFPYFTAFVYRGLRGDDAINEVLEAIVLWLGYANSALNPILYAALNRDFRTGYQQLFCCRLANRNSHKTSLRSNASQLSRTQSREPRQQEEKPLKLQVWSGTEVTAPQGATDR

Ki (Hrh3 protein): 0.00126 µM | Ki (Histamine H2 receptor): > 10 µM | Ki (Histamine H4 receptor): > 10 µM
SMILES: c1cc(OCCCN2CCCCC2)ccc1CN1CCCCC1 [1-(3-(4-(piperidin-1-ylmethyl)phenoxy)propyl)piperidine]
